Patent publication US20230250123A1, “GUT MICROBIOTA BIOACTIVATED PDE4 INHIBITOR PRECURSORS” (Giiant Pharma Inc., priority 2020, published 2023)

Columns and labels:
[1] = Negative control: incubation in mouse feces extract supernatant inactivated by boiling; assay type: in vitro ADME; details: 24 hours, mouse feces supernatant boiled 10 minutes (no enzyme activities)
Method: (§1) In vitro rate of glycoside prodrugs hydrolysis. The metabolic stability of prodrug candidates to release the parent PDE4 inhibitor could be assessed in vitro according, but not restricted, to the following protocol: feces were collected overnight on a mixture of dry and wet ice in a metabolic cage. Ten volumes (v/w; 30 mL) of 100 mM phosphate buffer (pH 6.5) were added to 3 g of freshly collected rodent feces. The mixture was homogenized with a Stomacher Circulator 400 (2 × 1 min-cycles at 225 rpm). The mixture was transferred to a 50 mL tubes, centrifuged at 10 000xg for 10 min (4° C.) and the supernatant was passed through a 0.45 µm-filter. In a 96 deep-well plate, 198 µL of feces supernatant were aliquoted in 2 wells per compound. Each compound, including positive control, was tested in duplicate. Then 2 µL of 10 mM stock solution of each test compound were spiked in individual wells (duplicate) at a final concentration of 100 µM and samples were sealed and mixed 30 sec at 1000 rpm using a vortexer. Samples were incubated at 37° C. for the desired time in the Thermomixer with constant agitation (300 rpm). At desired time-point, 25 µL of reaction mixture was added to 225 µL of ice-cold quenching solution (acetonitrile + 0.1% (v/v) formic acid) to stop the bacterial enzymatic activity. The quenched incubates were mixed and centrifuged 10 min at 21 000xg at 4° C. A real t0 (no metabolism, 100% total recovery of unchanged prodrug) was generated by adding 22.5 µL of feces supernatant to 225 µL of ice-cold quenching solution (acetonitrile + 0.1% (v/v) formic acid). Then 2.5 µL of 1 mM solution of each test compounds was added, sealed, mixed thoroughly and centrifuged 10 min at 21 000xg at 4° C. All samples, including analytical standards, were analyzed by LC-MS/MS to measure the concentration of the parent PDE4 inhibitor released and the concentration of the corresponding prodrug remaining. […]

[2] = Bidirectional Caco-2 permeability assay; assay type: in vitro ADME; details: human; Caco-2, 10 µM, apical pH 6.0 / basolateral pH 7.4, average of 2 determinations
Method: In vitro glycoside prodrug permeability assessment. The permeability of the glycoside prodrugs were measured using the bidirectional Caco-2 assay. Caco-2 cells were seeded onto permeable polycarbonate supports in 12-well Costar Transwell plates and allowed to grow and differentiate for 21-25 days. On day 24, culture medium (DMEM supplemented with 10% FBS, 1% non-essential amino acids and penicillin/streptomycin) was removed from both sides of the transwell inserts and cells were rinsed with warm HBSS. […] The buffer in the donor chamber (apical side for A-to-B assay, basolateral side for B-to-A assay) was removed and replaced with the working solution (10 µM test article in transport buffer). The plates were then placed at 37° C. under light agitation. At designated time points (30, 60 and 90 min); an aliquot of transport buffer from the receiver chamber was removed and replenished with fresh transport buffer. Samples were quenched with ice-cold CH3CN containing internal standard and then centrifuged to precipitate the protein. Resulting supernatants were further diluted with 50/50 ACN/H2O (H2O only for Atenolol) and submitted for LC/MS/MS analysis. […] Atenolol and propranolol were tested as low and […] permeability references. […] The apparent permeability (Papp, measured in cm/s) of a compound is determined according to the following formula: […]
Where dQ/dt is the net rate of appearance in the receiver compartment, A is the area of the Transwell measured in cm^2 (1.12 cm^2), C0 is the initial concentration of compound added to the donor chamber and 60 is the conversion factor for the minute to second.

[3] = In vitro rate of glycoside prodrug hydrolysis in feces supernatant, mouse; assay type: in vitro ADME; details: 100 µM, 37° C., pH 6.5, 24 hr
Method: (§2) In vitro rate of glycoside prodrugs hydrolysis. The metabolic stability of prodrug candidates to release the parent PDE4 inhibitor could be assessed in vitro according, but not restricted, to the following protocol: feces were collected overnight on a mixture of dry and wet ice in a metabolic cage. Ten volumes (v/w; 30 mL) of 100 mM phosphate buffer (pH 6.5) were added to 3 g of freshly collected rodent feces. The mixture was homogenized with a Stomacher Circulator 400 (2 × 1 min-cycles at 225 rpm). The mixture was transferred to a 50 mL tubes, centrifuged at 10 000xg for 10 min (4° C.) and the supernatant was passed through a 0.45 µm-filter. In a 96 deep-well plate, 198 µL of feces supernatant were aliquoted in 2 wells per compound. Each compound, including positive control, was tested in duplicate. Then 2 µL of 10 mM stock solution of each test compound were spiked in individual wells (duplicate) at a final concentration of 100 µM and samples were sealed and mixed 30 sec at 1000 rpm using a vortexer. Samples were incubated at 37° C. for the desired time in the Thermomixer with constant agitation (300 rpm). At desired time-point, 25 µL of reaction mixture was added to 225 µL of ice-cold quenching solution (acetonitrile + 0.1% (v/v) formic acid) to stop the bacterial enzymatic activity. The quenched incubates were mixed and centrifuged 10 min at 21 000xg at 4° C. A real t0 (no metabolism, 100% total recovery of unchanged prodrug) was generated by adding 22.5 µL of feces supernatant to 225 µL of ice-cold quenching solution (acetonitrile + 0.1% (v/v) formic acid). Then 2.5 µL of 1 mM solution of each test compounds was added, sealed, mixed thoroughly and centrifuged 10 min at 21 000xg at 4° C. All samples, including analytical standards, were analyzed by LC-MS/MS to measure the concentration of the parent PDE4 inhibitor released and the concentration of the corresponding prodrug remaining. A set criteria of 100% recovery is targeted where the summation of the % of prodrug remaining and the % of parent PDE4 inhibitor released should be 100% with an experimental error tolerance of ± 20%. When prodrugs represented by Formula (I) were incubated 24 hours under the conditions described above using mouse, rat and dog feces, the glycoside prodrugs were hydrolyzed to release the corresponding parent PDE4 inhibitor III (Table 3). As a negative control, when compound 4, 10 and 21 were incubated 24 hours under the conditions described above but in the absence of enzyme activities, using mouse feces extract supernatant inactivated by boiling the supernatant 10 minutes, 100% of the prodrugs were recovered unchanged.

[4] = In vitro rate of glycoside prodrug hydrolysis in feces supernatant, rat; assay type: in vitro ADME; details: 100 µM, 37° C., pH 6.5, 24 hr
Method: as §2

β-D-glucuronidase = assay: Positive control: incubation with β-D-glucuronidase in phosphate buffer; assay type: in vitro ADME; details: β-D-glucuronidase 50U/mL, phosphate buffer pH 6.5, 37° C., 24 hours
[5] = In vitro rate of glycoside prodrug hydrolysis in feces supernatant, dog; assay type: in vitro ADME; details: 100 µM, 37° C., pH 6.5, 24 hr
Method: as §1, with “At desired time-point, 25 µL of reaction mixture was added to 225 µL of ice-cold quenching solution (acetonitrile + 0.1% (v/v) formic acid) to stop the bacterial enzymatic activity. The quenched incubates were mixed and centrifuged 10 min at 21 000xg at 4° C. A real t0 (no metabolism, 100% total recovery of unchanged prodrug) was generated by adding 22.5 µL of feces supernatant to 225 µL of ice-cold quenching solution (acetonitrile + 0.1% (v/v) formic acid). Then 2.5 µL of 1 mM solution of each test compounds was added, sealed, mixed thoroughly and centrifuged 10 min at 21 000xg at 4° C.” left out

[6] = In vivo glycoside prodrug bioactivation, oral dosing to rats
[7] = In vivo glycoside prodrug bioactivation, oral dosing to C57BI/6 mice; details: labrasol/5%dextrose solution, over 48 hours
[8] = system: type-IV cAMP-specific phosphodiesterases; assay: Inhibitory potency against PDE4 isozymes (isozyme not given); assay type: biochemical; details: sample contaminated with 0.17% of IIIa, which accounts for 100% of the potency recorded; read-out: IC50 (PDE4, isozyme not stated)
[9] = system: LPS-induced TNFα in human whole blood; assay: LPS-induced TNFα assay in human whole blood; assay type: cell-based; details: human whole blood from 12 healthy volunteers, LPS 1 µg/mL, 24 h; read-out: average IC50, TNFα inhibition
PDE4B1 = PDE4B1 (Homo sapiens, UniProt Q07343); assay: Inhibitory potency against PDE4 isozymes (FAM-cAMP fluorescence polarization), PDE4B1
Sequence of PDE4B1 (Q07343 whole entry, species assumed): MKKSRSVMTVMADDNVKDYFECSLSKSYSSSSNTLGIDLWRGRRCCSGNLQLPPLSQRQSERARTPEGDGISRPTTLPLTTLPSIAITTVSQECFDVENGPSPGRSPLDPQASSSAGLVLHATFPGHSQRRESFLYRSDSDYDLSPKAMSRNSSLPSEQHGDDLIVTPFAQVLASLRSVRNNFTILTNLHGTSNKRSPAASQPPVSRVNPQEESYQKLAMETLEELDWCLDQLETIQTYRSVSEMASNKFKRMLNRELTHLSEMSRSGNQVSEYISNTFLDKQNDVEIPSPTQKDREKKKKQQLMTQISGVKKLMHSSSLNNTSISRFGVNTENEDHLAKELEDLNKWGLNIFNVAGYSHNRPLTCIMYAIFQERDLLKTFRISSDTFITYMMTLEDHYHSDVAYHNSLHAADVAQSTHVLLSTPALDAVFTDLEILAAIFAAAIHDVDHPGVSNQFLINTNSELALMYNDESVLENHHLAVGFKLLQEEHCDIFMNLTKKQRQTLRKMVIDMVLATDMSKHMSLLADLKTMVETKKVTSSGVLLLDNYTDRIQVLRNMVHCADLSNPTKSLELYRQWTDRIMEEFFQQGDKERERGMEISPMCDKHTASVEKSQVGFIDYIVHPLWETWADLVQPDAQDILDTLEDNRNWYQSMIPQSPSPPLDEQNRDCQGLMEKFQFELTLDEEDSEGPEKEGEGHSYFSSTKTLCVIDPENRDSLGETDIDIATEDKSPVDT

PDE4D2 = PDE4D2 (Homo sapiens, UniProt Q08499); assay: Inhibitory potency against PDE4 isozymes (FAM-cAMP fluorescence polarization), PDE4D2
Sequence of PDE4D2 (Q08499 303-809 limits assumed): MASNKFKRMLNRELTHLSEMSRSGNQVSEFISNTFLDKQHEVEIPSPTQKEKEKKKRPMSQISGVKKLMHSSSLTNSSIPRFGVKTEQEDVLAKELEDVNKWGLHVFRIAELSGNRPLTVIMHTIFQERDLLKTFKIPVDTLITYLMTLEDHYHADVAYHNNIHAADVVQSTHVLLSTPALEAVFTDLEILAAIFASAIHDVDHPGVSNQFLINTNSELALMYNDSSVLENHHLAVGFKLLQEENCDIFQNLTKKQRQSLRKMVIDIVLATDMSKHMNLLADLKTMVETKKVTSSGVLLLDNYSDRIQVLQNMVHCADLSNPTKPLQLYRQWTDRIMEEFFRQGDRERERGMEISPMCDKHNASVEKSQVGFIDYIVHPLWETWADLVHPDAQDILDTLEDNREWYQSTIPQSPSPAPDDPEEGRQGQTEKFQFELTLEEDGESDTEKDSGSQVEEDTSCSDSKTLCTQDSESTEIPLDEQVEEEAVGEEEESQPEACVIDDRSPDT

PDE4A1A = PDE4A1A (Homo sapiens, UniProt P27815); assay: Inhibitory potency against PDE4 isozymes (FAM-cAMP fluorescence polarization), PDE4A1A
Sequence of PDE4A1A (P27815 1-647 isoform P27815-4): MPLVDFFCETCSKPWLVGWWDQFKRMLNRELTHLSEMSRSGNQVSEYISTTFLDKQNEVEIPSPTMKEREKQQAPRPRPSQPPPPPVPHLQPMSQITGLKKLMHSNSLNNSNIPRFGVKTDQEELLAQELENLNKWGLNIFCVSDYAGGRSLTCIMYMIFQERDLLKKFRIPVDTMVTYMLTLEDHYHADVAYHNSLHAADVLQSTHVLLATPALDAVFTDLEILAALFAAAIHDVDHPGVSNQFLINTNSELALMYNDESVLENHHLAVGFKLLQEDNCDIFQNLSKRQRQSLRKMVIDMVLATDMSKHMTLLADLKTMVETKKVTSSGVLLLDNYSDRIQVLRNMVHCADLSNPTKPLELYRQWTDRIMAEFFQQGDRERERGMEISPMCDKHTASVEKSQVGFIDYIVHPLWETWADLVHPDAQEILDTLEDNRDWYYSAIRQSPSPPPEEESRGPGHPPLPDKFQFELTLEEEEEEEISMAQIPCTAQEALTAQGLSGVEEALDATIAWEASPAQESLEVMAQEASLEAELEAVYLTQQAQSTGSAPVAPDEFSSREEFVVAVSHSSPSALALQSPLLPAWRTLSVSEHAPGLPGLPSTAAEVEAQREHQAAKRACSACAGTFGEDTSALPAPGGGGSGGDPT

in vivo = details: C57BI/6, mouse, po

SMILES | prodrug recovered unchanged [1] [%] | Papp A→B at 10 µM [2] [×10⁻⁶ cm/s] | Prodrug Remaining @ 24 hr (%) [3] [%] | Prodrug Remaining @ 24 hr (%) [4] [%] | also measured
CC(C)(O)c1ccc([C@@H](Cc2ccc(O[C@@H]3O[C@H](CO)[C@@H](O)[C@H](O)[C@H]3O)nc2)c2ccc(OC(F)F)c(OC3CC3)c2)cn1 [Compound 4, (2S,3R,4S,5S,6R)-2-((5-((S)-2-(3-cyclopropoxy-4-(difluoromethoxy)phenyl)-2-(6-(2-hydroxypropan-2-yl)pyridin-3-yl)ethyl)pyridin-2-yl)oxy)-6-(hydroxymethyl)tetrahydro-2H-pyran-3,4,5-triol] | 100 | 0.08 | 0.1 | 0.0 | 
CC(=O)OC[C@H]1O[C@@H](Oc2ccc(C[C@H](c3ccc(C(C)(C)O)nc3)c3ccc(OC(F)F)c(OC4CC4)c3)cn2)[C@H](O)[C@@H](OC(C)=O)[C@@H]1OC(C)=O [Compound 5, (2R,3R,4R,5R,6S)-2-(acetoxymethyl)-6-((5-((S)-2-(3-cyclopropoxy-4-(difluoromethoxy)phenyl)-2-(6-(2-hydroxypropan-2-yl)pyridin-3-yl)ethyl)pyridin-2-yl)oxy)-5-hydroxytetrahydro-2H-pyran-3,4-diyl diacetate] |  | 0.9 | 0.0 | 0.0 | 
CC(C)(O)c1ccc([C@@H](Cc2ccc(O[C@@H]3O[C@H](C(=O)[O-])[C@@H](O)[C@H](O)[C@H]3O)nc2)c2ccc(OC(F)F)c(OC3CC3)c2)cn1.[Li+] [Compound 9, lithium (2S,3S,4S,5R,6S)-6-((5-((S)-2-(3-cyclopropoxy-4-(difluoromethoxy)phenyl)-2-(6-(2-hydroxypropan-2-yl)pyridin-3-yl)ethyl)pyridin-2-yl)oxy)-3,4,5-trihydroxytetrahydro-2H-pyran-2-carboxylate] |  |  | 3.3 | 4.2 | prodrug recovered unchanged (β-D-glucuronidase): 2%
COC(=O)[C@H]1O[C@@H](Oc2ccc(C[C@H](c3ccc(C(C)(C)O)nc3)c3ccc(OC(F)F)c(OC4CC4)c3)cn2)[C@H](O)[C@@H](O)[C@@H]1O [Compound 10, (2S,3S,4S,5R,6S)-methyl 6-((5-((S)-2-(3-cyclopropoxy-4-(difluoromethoxy)phenyl)-2-(6-(2-hydroxypropan-2-yl)pyridin-3-yl)ethyl)pyridin-2-yl)oxy)-3,4,5-trihydroxytetrahydro-2H-pyran-2-carboxylate] | 100 | 0.3 | 74 | 47 | Prodrug Remaining @ 24 hr (%) [5]: 67%; prodrug recovered unchanged (β-D-glucuronidase): 64%; extent of prodrug bioactivation (ratio of parent IIIb over residual prodrug 10 in excreted feces) ([6]; oral, aqueous suspension, over 24 hours): 96%; unchanged prodrug detected in excreted feces [7]: only trace amount
O=c1ccc(C[C@@H](c2ccc(OC(F)F)c(OC3CC3)c2)c2cnc(C(O)(C(F)(F)F)C(F)(F)F)s2)c[nH]1 [IIIa, (S)-5-(2-(3-cyclopropoxy-4-(difluoromethoxy)phenyl)-2-(2-(1,1,1,3,3,3-hexafluoro-2-hydroxypropan-2-yl)thiazol-5-yl)ethyl)pyridin-2(1H)-one] |  | 19.1 |  |  | IC50 [9]: < 50 nM; IC50 (PDE4B1): < 10 nM; IC50 (PDE4D2): < 10 nM; IC50 (PDE4A1A): < 10 nM
CC(C)(O)c1ccc([C@@H](Cc2ccc(=O)[nH]c2)c2ccc(OC(F)F)c(OC3CC3)c2)cn1 [IIIb, (S)-5-(2-(3-cyclopropoxy-4-(difluoromethoxy)phenyl)-2-(6-(2-hydroxypropan-2-yl)pyridin-3-yl)ethyl)pyridin-2(1H)-one] |  |  |  |  | IC50 [9]: < 50 nM; Kp (in vivo): 200; time before which released IIIb was not detected in blood ([6]; compound 10 orally as aqueous suspension): ≥ 2 h; IC50 (PDE4B1): < 10 nM; IC50 (PDE4D2): < 10 nM

Continued, in another order:

prodrug recovered unchanged [1] [%] | Papp A→B at 10 µM [2] [×10⁻⁶ cm/s] | Prodrug Remaining @ 24 hr (%) [3] [%] | SMILES | Prodrug Remaining @ 24 hr (%) [4] [%] | also measured
100 |  |  | CC(C)(O)c1ccc([C@@H](Cc2ccc(OC3O[C@H](CO)[C@@H](O)[C@H](O)[C@H]3N)nc2)c2ccc(OC(F)F)c(OC3CC3)c2)cn1 (mixture of isomers) [Compound 21, (2R,3S,4R,5R)-5-amino-6-((5-((S)-2-(3-cyclopropoxy-4-(difluoromethoxy)phenyl)-2-(6-(2-hydroxypropan-2-yl)pyridin-3-yl)ethyl)pyridin-2-yl)oxy)-2-(hydroxymethyl)tetrahydro-2H-pyran-3,4-diol] |  | 
 | 0.2 | 62 | N[C@H]1[C@H](Oc2ccc(C[C@@H](c3ccc(OC(F)F)c(OC4CC4)c3)c3cnc(C(O)(C(F)(F)F)C(F)(F)F)s3)cn2)O[C@H](CO)[C@@H](O)[C@@H]1O [Compound 22, (2R,3S,4R,5R,6S)-5-amino-6-((5-((S)-2-(3-cyclopropoxy-4-(difluoromethoxy)phenyl)-2-(2-(1,1,1,3,3,3-hexafluoro-2-hydroxypropan-2-yl)thiazol-5-yl)ethyl)pyridin-2-yl)oxy)-2-(hydroxymethyl)tetrahydro-2H-pyran-3,4-diol] |  | IC50 [8]: > 100 nM
 |  | 65 | CC(C)(O)c1ccc([C@@H](Cc2ccc(O[C@@H]3O[C@H](CO)[C@@H](O)[C@H](O)[C@H]3N)nc2)c2ccc(OC(F)F)c(OC3CC3)c2)cn1 [Compound 23, (2R,3S,4R,5R,6S)-5-amino-6-((5-((S)-2-(3-cyclopropoxy-4-(difluoromethoxy)phenyl)-2-(6-(2-hydroxypropan-2-yl)pyridin-3-yl)ethyl)pyridin-2-yl)oxy)-2-(hydroxymethyl)tetrahydro-2 H-pyran-3,4-diol] |  | Prodrug Remaining @ 24 hr (%) [5]: 75%
 | 2.8 | 96 | C[N+](C)(C)[C@H]1[C@H](Oc2ccc(C[C@@H](c3ccc(OC(F)F)c(OC4CC4)c3)c3cnc(C(O)(C(F)(F)F)C(F)(F)F)s3)cn2)O[C@H](CO)[C@@H](O)[C@@H]1O.[I-] [Compound 26, (2S,3R,4R,5S,6R)-2-((5-((S)-2-(3-cyclopropoxy-4-(difluoromethoxy)phenyl)-2-(2-(1,1,1,3,3,3-hexafluoro-2-hydroxypropan-2-yl)thiazol-5-yl)ethyl)pyridin-2-yl)oxy)-4,5-dihydroxy-6-(hydroxymethyl)-N,N,N-trimethyltetrahydro-2H-pyran-3-aminium iodide] |  | 
